# Data as given in PubChem BioAssay AID1963836 (Molecular Pharmacology Branch, DTP, NCI, 2024).
# Tested on: 857933-349-R-J2-PDC complex spheroid viability
# Experiment: Anticancer human tumor 857933-349-R-J2-PDC patient-derived colon adenocarcinoma cell line growth inhibition [POLQ]
# Conditions: for IC50: curve of first compound; for viability, T/C: stronger effect = lower value
# How it was run: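 PDC + HUVEC + MSC complex spheroids; POLQ inhibitors ± partner drugs; top conc. at/near clinical Cmax, else 10 microM (SN-38 1 microM), half-log dilutions; 37 degrees C, 5% CO2.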
# [1] = second compound 0.0316 µM, first compound 0.0316 µM
# [2] = second compound 0.0316 µM, first compound 0.1 µM
# [3] = second compound 0.0316 µM, first compound 0.316 µM
# [4] = second compound 0.0316 µM, first compound 1 µM
# [5] = second compound 0.0316 µM, first compound 3.16 µM
# [6] = second compound 0.0316 µM, first compound 10 µM
# [7] = second compound 0.1 µM, first compound 0.0316 µM
# [8] = second compound 0.1 µM, first compound 0.1 µM
# [9] = second compound 0.1 µM, first compound 0.316 µM
# [10] = second compound 0.1 µM, first compound 1 µM
# [11] = second compound 0.1 µM, first compound 3.16 µM
# [12] = second compound 0.1 µM, first compound 10 µM
# [13] = second compound 0.316 µM, first compound 0.0316 µM
# [14] = second compound 0.316 µM, first compound 0.1 µM
# [15] = second compound 0.316 µM, first compound 0.316 µM
# [16] = second compound 0.316 µM, first compound 1 µM
# [17] = second compound 0.316 µM, first compound 3.16 µM
# [18] = second compound 0.316 µM, first compound 10 µM
# [19] = second compound 1 µM, first compound 0.0316 µM
# [20] = second compound 1 µM, first compound 0.1 µM
# [21] = second compound 1 µM, first compound 0.316 µM
# [22] = second compound 1 µM, first compound 1 µM
# [23] = second compound 1 µM, first compound 3.16 µM
# [24] = second compound 1 µM, first compound 10 µM
# [25] = second compound 3.16 µM, first compound 0.0316 µM
# [26] = second compound 3.16 µM, first compound 0.1 µM
# [27] = second compound 3.16 µM, first compound 0.316 µM
# [28] = second compound 3.16 µM, first compound 1 µM
# [29] = second compound 3.16 µM, first compound 3.16 µM
# [30] = second compound 3.16 µM, first compound 10 µM
# [31] = second compound 10 µM, first compound 0.0316 µM
# [32] = second compound 10 µM, first compound 0.1 µM
# [33] = second compound 10 µM, first compound 0.316 µM
# [34] = second compound 10 µM, first compound 1 µM
# [35] = second compound 10 µM, first compound 3.16 µM
# [36] = second compound 10 µM, first compound 10 µM
# 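Also: spheroids exposed to compounds for seven days before readout.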
smiles,measurement,setting,value
CNCc1ccc(-c2[nH]c3cc(F)cc4c3c2CCNC4=O)cc1 + Cc1cccc(N(C)C(=O)C2C(O)CCN2c2nc(C)cc(C(F)(F)F)c2C#N)c1,IC50,second compound 0.0316 µM,> 10 µM
same,IC50,second compound 0.1 µM,> 10 µM
same,IC50,second compound 0.316 µM,> 10 µM
same,IC50,second compound 1 µM,> 10 µM
same,IC50,second compound 3.16 µM,> 10 µM
same,IC50,second compound 10 µM,> 10 µM
same,"viability, T/C",[1],98.9%
same,"viability, T/C",[2],111%
same,"viability, T/C",[3],96.3%
same,"viability, T/C",[4],99.2%
same,"viability, T/C",[5],78.9%
same,"viability, T/C",[6],99.7%
same,"viability, T/C",[7],103%
same,"viability, T/C",[8],90.7%
same,"viability, T/C",[9],90.7%
same,"viability, T/C",[10],76.4%
same,"viability, T/C",[11],102%
same,"viability, T/C",[12],104%
same,"viability, T/C",[13],97.3%
same,"viability, T/C",[14],104%
same,"viability, T/C",[15],108%
same,"viability, T/C",[16],95.5%
same,"viability, T/C",[17],103%
same,"viability, T/C",[18],89.5%
same,"viability, T/C",[19],120%
same,"viability, T/C",[20],98.5%
same,"viability, T/C",[21],90.7%
same,"viability, T/C",[22],86.5%
same,"viability, T/C",[23],104%
same,"viability, T/C",[24],79.3%
same,"viability, T/C",[25],88.7%
same,"viability, T/C",[26],112%
same,"viability, T/C",[27],95.7%
same,"viability, T/C",[28],105%
same,"viability, T/C",[29],95.4%
same,"viability, T/C",[30],80.5%
same,"viability, T/C",[31],102%
same,"viability, T/C",[32],106%
same,"viability, T/C",[33],117%
same,"viability, T/C",[34],68.4%
same,"viability, T/C",[35],116%
same,"viability, T/C",[36],86.3%
O=C(c1cc(Cc2n[nH]c(=O)c3ccccc23)ccc1F)N1CCN(C(=O)C2CC2)CC1 + Cc1cccc(N(C)C(=O)C2C(O)CCN2c2nc(C)cc(C(F)(F)F)c2C#N)c1,IC50,second compound 0.0316 µM,> 10 µM
same,IC50,second compound 0.1 µM,> 10 µM
same,IC50,second compound 0.316 µM,> 10 µM
same,IC50,second compound 1 µM,> 10 µM
same,IC50,second compound 3.16 µM,> 10 µM
same,IC50,second compound 10 µM,> 10 µM
same,"viability, T/C",[1],109%
same,"viability, T/C",[2],99.4%
same,"viability, T/C",[3],85.3%
same,"viability, T/C",[4],72.5%
same,"viability, T/C",[5],93.4%
same,"viability, T/C",[6],84.7%
same,"viability, T/C",[7],109%
same,"viability, T/C",[8],101%
same,"viability, T/C",[9],93.8%
same,"viability, T/C",[10],83.8%
same,"viability, T/C",[11],69.7%
same,"viability, T/C",[12],72.9%
same,"viability, T/C",[13],107%
same,"viability, T/C",[14],98.1%
same,"viability, T/C",[15],70.5%
same,"viability, T/C",[16],96.2%
same,"viability, T/C",[17],89.8%
same,"viability, T/C",[18],80.3%
same,"viability, T/C",[19],84.7%
same,"viability, T/C",[20],80.9%
same,"viability, T/C",[21],86.2%
same,"viability, T/C",[22],79%
same,"viability, T/C",[23],73.7%
same,"viability, T/C",[24],82.6%
same,"viability, T/C",[25],67%
same,"viability, T/C",[26],79.2%
same,"viability, T/C",[27],81.6%
same,"viability, T/C",[28],87.2%
same,"viability, T/C",[29],72.8%
same,"viability, T/C",[30],92.2%
same,"viability, T/C",[31],86.5%
same,"viability, T/C",[32],110%
same,"viability, T/C",[33],82.6%
same,"viability, T/C",[34],84%
same,"viability, T/C",[35],71.3%
same,"viability, T/C",[36],79.9%
